Laboratory results published in US20230118795A1, “ARYL OR HETEROARYL PYRIDONE OR PYRIMIDINE DERIVATIVE, PREPARATION METHOD AND USE THEREOF” (SUZHOU ZELGEN BIOPHARMACEUTICALS CO., LTD., priority 2020, published 2023).

Tested on: NCI-H358 (KRAS^G12C mutation) cell
Assay: Cell assay of antiproliferative activity against NCI-H358 cell (Celltiter-Glo, 5 days)
Format: cell-based
Settings: 5 days incubation
Method: Cell Assay of Antiproliferative Activity of Compounds Against NCI-H358 (KRAS^G12C Mutation) Cell.
40 μL phosphate buffer was added to the outer wells of the 384 microplate, and 40 μL cell suspension to be tested was added to the other wells. Then the microplate was incubated in a carbon dioxide incubator overnight.
The compounds to be tested were gradiently diluted, each compound was performed 10 concentration gradients (diluted from 50 μM to 0.003 μM) and added 100 nL to the corresponding wells in the microplate. After addition, 40 μl of phosphate buffer was added to each well in rows A and P and columns 1 and 24, and then the microplate was incubated in a carbon dioxide incubator for 5 days.
20 μL of Promega Celltiter-Glo reagent was added to each well of the microplate, and then the luminescence signal was stabilized by oscillating at room temperature for 10 min. Then PekinElmer Envision multi-label analyzer was used to read.
Finally, GraphPad Prism software was used to calculate the IC50 value of the compound and the fitting curve was drawn.
Anti-proliferative activity of the compounds of the present invention against NCI-H358 (KRAS^G12C mutation) cell was shown in Table 1.

SMILES: C=CC(=O)N1CCN(c2nc(=O)n(-c3c(C(C)C)ccnc3S(C)(=O)=O)c3nc(-c4cccc(F)c4Cl)c(F)cc23)[C@@H](C)C1 [Example 26, (S)-4-(4-acryloyl-2-methylpiperazin-1-yl)-7-(2-chloro-3-fluorophenyl)-6-fluoro-1-(4-isopropyl-2-(methylsulfonyl)pyridin-3-yl) pyridino[2,3-d] pyrimidin-2(1H)-one]
- IC50 (Homo sapiens, NCI-H358, 120 h): 18 nM

SMILES: C=CC(=O)N1CCN(c2nc(=O)n(-c3cnccc3S(C)(=O)=O)c3nc(-c4c(O)cccc4F)c(F)cc23)[C@@H](C)C1 [Example 89]
- IC50: 1000 to 10000 nM

SMILES: C=CC(=O)N1CCN(c2nc(=O)n(-c3c(C(C)C)ccnc3S(C)(=O)=O)c3nc(-c4ccccc4Cl)c(F)cc23)[C@@H](C)C1 (single isomer, unassigned) [Example 20A]
- IC50: 1500 nM

SMILES: C=CC(=O)N1CCN(c2nc(=O)n(-c3c(C)cccc3S(C)(=O)=O)c3nc(-c4c(O)cccc4F)c(F)cc23)CC1CC#N (stereo not drawn) [Example 91, 2-(1-acryloyl-4-(6-fluoro-7-(2-fluoro-6-hydroxyphenyl)-1-(2-methyl-6-(methylsulfonyl)phenyl)-2-oxo-1,2-dihydropyridino [2,3-d]pyrimidin-4-yl)piperazin-2-yl) acetonitrile]
- IC50: 1000 to 10000 nM

SMILES: C=CC(=O)N1CCN(c2nc(=O)n(-c3c(C(C)C)ccnc3S(C)(=O)=O)c3nc(-c4ccc(F)cc4Cl)c(F)cc23)[C@@H](C)C1 [Example 22, (S)-4-(4-acryloyl-2-methylpiperazin-1-yl)-7-(2-chloro-4-fluorophenyl)-6-fluoro-1-(4-isopropyl-2-(methylsulfonyl)pyridin-3-yl) pyridino[2,3-d]pyrimidin-2(1H)-one]
- IC50 (Homo sapiens, NCI-H358, 120 h): 39 nM

SMILES: C=CC(=O)N1CCN(c2nc(=O)n(-c3c(C(C)C)cccc3S(C)(=O)=O)c3nc(-c4c(F)cccc4C(=O)OC)c(F)cc23)[C@@H](C)C1 [Example 77]
- IC50 (Homo sapiens, NCI-H358, 120 h): > 10000 nM

SMILES: C=CC(=O)N1CCN(c2nc(=O)n(-c3cccnc3S(C)(=O)=O)c3nc(-c4c(O)cccc4F)c(F)cc23)[C@@H](C)C1 [Example 88, 4-((S)-4-acryloyl-2-methylpiperazin-1-yl)-6-fluoro-7-(2-fluoro-6-hydroxyphenyl)-1-(2-(methylsulfonyl)pyridin-3-yl) pyridino [2,3-d] pyrimidin-2(1H)-one]
- IC50: 1000 to 10000 nM

SMILES: C=CC(=O)N1CCN(c2nc(=O)n(-c3c(C(C)C)cccc3S(C)(=O)=O)c3nc(-c4c(C)ncn4C)c(F)cc23)[C@@H](C)C1 [Example 76, 4-((S)-4-acryloyl-methylpiperazin-1-yl)-7-(1,4-dimethyl-1H-imidazol-5-yl)-6-fluoro-1-(2-isopropyl-6-(methylsulfonyl)phenyl) pyridino [2,3-d] pyrimidin-2 (1H)-one]
- IC50 (Homo sapiens, NCI-H358, 120 h): > 10000 nM

SMILES: C=CC(=O)N1CCN(c2nc(=O)n(-c3c(C)cccc3S(C)(=O)=O)c3nc(-c4c(O)cccc4F)c(F)cc23)CC1CC#N (stereo not drawn) [Example 57, 2-(1-acryloyl-4-(6-fluoro-7-(2-fluoro-6-hydroxyphenyl)-1-(2-methyl-6-(methylsulfonyl)phenyl)-2-oxo-1,2-dihydropyridino [2,3-d]pyrimidin-4-yl)piperazin-2-yl) acetonitrile]
- IC50: 10000 nM

SMILES: C=CC(=O)N1CCN(c2nc(=O)n(-c3cccnc3S(C)(=O)=O)c3nc(-c4c(O)cccc4F)c(F)cc23)CC1CC#N (stereo not drawn) [Example 92, 2-(1-acryloyl-4-(6-fluoro-7-(2-fluoro-6-hydroxyphenyl)-1-(2-(methylsulfonyl)pyridin-3-yl)-2-oxo-1,2-dihydropyridino [2,3-d]pyrimidin-4-yl)piperazin-2-yl) acetonitrile]
- IC50: > 10000 nM

SMILES: C=CC(=O)N1CCN(c2nc(=O)n(-c3c(C)cccc3S(=O)(=O)C(C)C)c3nc(-c4c(O)cccc4F)c(F)cc23)[C@@H](C)C1 [Example 4, 4-((S)-4-acryloyl-2-methylpiperazin-1-yl)-6-fluoro-7-(2-fluoro-6-hydroxyphenyl)-1-(2-(isopropylsulfonyl)-6-methylphenyl) pyridino[2,3-d] pyrimidin-2(1H)-one]
- IC50 (Homo sapiens, NCI-H358, 120 h): 420 nM

SMILES: C=CC(=O)N1CCN(c2nc(=O)n(-c3ccccc3S(C)(=O)=O)c3nc(-c4c(O)cccc4F)c(F)cc23)CC1CC#N (stereo not drawn) [Example 90, 2-(1-acryloyl-4-(6-fluoro-7-(2-fluoro-6-hydroxyphenyl)-1-(2-(methylsulfonyl)phenyl)-2-oxo-1,2-dihydropyridino [2,3-d]pyrimidin-4-yl)piperazin-2-yl) acetonitrile]
- IC50: 1000 to 10000 nM

SMILES: C=CC(=O)N1CCN(c2nc(=O)n(-c3ccccc3S(C)(=O)=O)c3nc(-c4c(O)cccc4F)c(F)cc23)CC1CC#N (stereo not drawn) [Example 56, 2-(1-acryloyl-4-(6-fluoro-7-(2-fluoro-6-hydroxyphenyl)-1-(2-(methylsulfonyl)phenyl)-2-oxo-1,2-dihydropyridino [2,3-d]pyrimidin-4-yl)piperazin-2-yl) acetonitrile]
- IC50: 8000 nM

SMILES: C=CC(=O)N1CCN(c2nc(=O)n(-c3c(C(C)C)ccnc3S(C)(=O)=O)c3nc(-c4c(F)cccc4Cl)c(F)cc23)[C@@H](C)C1 [Example 28, 4-((S)-4-acryloyl-2-methylpiperazin-1-yl)-7-(2-chloro-6-fluorophenyl)-6-fluoro-1-(4-isopropyl-2-(methylsulfonyl)pyridin-3-yl) pyridino[2,3-d] pyrimidin-2(1H)-one]
- IC50 (Homo sapiens, NCI-H358, 120 h): 26 nM

SMILES: C=CC(=O)N1CCN(c2nc(=O)n(-c3c(C(C)C)cccc3S(C)(=O)=O)c3nc(-c4c(O)cccc4F)c(F)cc23)[C@@H](C)C1 (single isomer, unassigned) [Example 10A]
- IC50: 280 nM

SMILES: C=CC(=O)N1CCN(c2nc(=O)n(-c3c(Cl)cccc3S(C)(=O)=O)c3nc(-c4c(O)cccc4F)c(F)cc23)[C@@H](C)C1 [Example 8, 4-((S)-4-acryloyl-2-methylpiperazin-1-yl)-1-(2-chloro-6-(methylsulfonyl)phenyl)-6-fluoro-7-(2-fluoro-6-hydroxyphenyl) pyridino [2,3-d] pyrimidin-2 (1H)-one]
- IC50 (Homo sapiens, NCI-H358, 120 h): 170 nM

SMILES: C=CC(=O)N1CCN(c2nc(=O)n(-c3c(C(C)C)ccnc3S(C)(=O)=O)c3nc(-c4c(O)cccc4F)c(F)cc23)[C@@H](C)C1 [Example 16, 4-((S)-4-acryloyl-2-methylpiperazin-1-yl)-6-fluoro-7-(2-fluoro-6-hydroxyphenyl)-1-(4-isopropyl-2-(methylsulfonyl)pyridin-3-yl) pyridino [2,3-d] pyrimidin-2 (1H)-one]
- IC50 (Homo sapiens, NCI-H358, 120 h): 12 nM

SMILES: C=CC(=O)N1CCN(c2nc(=O)n(-c3c(C)cccc3S(=O)(=O)N(C)C)c3nc(-c4c(O)cccc4F)c(F)cc23)[C@@H](C)C1 [Example 14]
- IC50 (Homo sapiens, NCI-H358, 120 h): 360 nM

SMILES: C=CC(=O)N1CCN(c2nc(=O)n(-c3c(C(C)C)cccc3S(C)(=O)=O)c3nc(-c4ccccc4Cl)c(F)cc23)[C@@H](C)C1 [Example 30, (S)-4-(4-acryloyl-2-methylpiperazin-1-yl)-7-(2-chlorophenyl)-6-fluoro-1-(2-isopropyl-6-(methylsulfonyl)phenyl) pyridino[2,3-d]pyrimidin-2(1H)-one]
- IC50: 18 nM

SMILES: C=CC(=O)N1CCN(c2nc(=O)n(-c3c(C(C)C)cccc3S(C)(=O)=O)c3nc(-c4cccc(C#N)c4Cl)c(F)cc23)[C@@H](C)C1 [Example 65, (S)-3-(4-(4-acryloyl-2-methylpiperazin-1-yl)-6-fluoro-1-(2-isopropyl-6-(methylsulfonyl)phenyl)-2-oxo-1,2-dihydropyridino[2,3-d]pyrimidin-7-yl)-2-chlorobenzonitrile]
- IC50 (Homo sapiens, NCI-H358, 120 h): > 10000 nM

SMILES: C=CC(=O)N1CCN(c2nc(=O)n(-c3c(C(C)C)cccc3S(C)(=O)=O)c3nc(-c4c(F)cccc4OC(C)=O)c(F)cc23)[C@@H](C)C1 (single isomer, unassigned) [Example 31B]
- IC50: 6 nM

SMILES: C=CC(=O)N1CCN(c2nc(=O)n(-c3ccccc3S(C)(=O)=O)c3nc(-c4c(O)cccc4F)c(F)cc23)C(CC#N)C1 (stereo not drawn) [Example 60, 2-(4-acryloyl-1-(6-fluoro-7-(2-fluoro-6-hydroxyphenyl)-1-(2-(methylsulfonyl)phenyl)-2-oxo-1,2-dihydropyridino [2,3-d]pyrimidin-4-yl)piperazin-2-yl) acetonitrile]
- IC50 (Homo sapiens, NCI-H358, 120 h): > 10000 nM

SMILES: C=CC(=O)N1CCN(c2nc(=O)n(-c3c(C)cccc3S(C)(=O)=O)c3nc(-c4c(F)cccc4Cl)c(F)cc23)[C@@H](C)C1 [Example 59, 4-((S)-4-acryloyl-2-methylpiperazin-1-yl)-7-(2-chloro-6-fluorophenyl)-6-fluoro-1-(2-methyl-6-(methylsulfonyl)phenyl) pyridino [2,3-d] pyrimidin-2(1H)-one]
- IC50 (Homo sapiens, NCI-H358, 120 h): 200 nM

SMILES: C=CC(=O)N1CCN(c2nc(=O)n(-c3c(C)cccc3S(C)(=O)=O)c3nc(-c4c(F)cccc4C(F)F)c(F)cc23)[C@@H](C)C1 [Example 9, 4-((S)-4-acryloyl-2-methylpiperazin-1-yl)-7-(2-(difluoromethyl)-6-fluorophenyl)-6-fluoro-1-(2-methyl-6-(methylsulfonyl)phenyl) pyridino [2,3-d] pyrimidin-2 (1H)-one]
- IC50 (Homo sapiens, NCI-H358, 120 h): 230 nM

SMILES: C=CC(=O)N1CCN(c2nc(=O)n(-c3c(CC)cccc3S(C)(=O)=O)c3nc(-c4c(O)cccc4F)c(F)cc23)[C@@H](C)C1 [Example 5A]
- IC50: 230 nM

SMILES: C=CC(=O)N1CCN(c2nc(=O)n(-c3c(C)cccc3S(C)(=O)=O)c3nc(-c4c(O)cccc4F)c(F)cc23)[C@@H](C)C1 (single isomer, unassigned) [Example 87A]
- IC50: < 30 nM

SMILES: C=CC(=O)N1CCN(c2nc(=O)n(-c3c(C(C)C)cccc3S(C)(=O)=O)c3nc(-c4ccnn4C)c(F)cc23)[C@@H](C)C1 [Example 68, (S)-4-(4-acryloyl-2-methylpiperazin-1-yl)-6-fluoro-1-(2-isopropyl-6-(methylsulfonyl)phenyl)-7-(1-methyl-1H-pyrazol-5-yl) pyridino [2,3-d] pyrimidin-2(1H)-one]
- IC50 (Homo sapiens, NCI-H358, 120 h): 2200 nM
